Data: patent US20220386611A1, “NOVEL HETEROARYL-TRIAZOLE COMPOUNDS AS PESTICIDES” (Bayer Aktiengesellschaft, priority 2019, published 2022)

Experiments:
Type in all cases: in vivo
[1] = tested on: larvae of the banded cucumber beetle (Diabrotica balteata); assay: Diabrotica balteata spray test; settings: 168 h, 100 g/ha (=32 μg/well), after 7 days, wheat seeds, read-out: efficacy (seedlings grown like untreated, uninfected control)
Description: Diabrotica balteata—spray test
Solvent: 78.0 parts by weight of acetone
1.5 parts by weight of dimethylformamide
(§1) Emulsifier: alkylarylpolyglycol ether
(§2) To produce a suitable preparation of active compound, 1 part by weight of active compound is mixed with the stated amount of solvent, and the concentrate is diluted with water, containing an emulsifier concentration of 1000 ppm, to the desired concentration. Further test concentrations are prepared by dilution with emulsifier containing water.
Soaked wheat seeds (Triticum aestivum) are placed in a multiple well plate filled with agar and some water and are incubated for 1 day to germinate (5 seeds per well). The germinated wheat seeds are sprayed with a test solution containing the desired concentration of the active ingredient. Afterwards each unit is infected with 10-20 larvae of the banded cucumber beetle (Diabrotica balteata).
After 7 days efficacy in % is determined. 100% means all the seedlings have grown up like in the untreated, uninfected control; 0% means none of the seedlings have grown.

[2] = tested on: green peach aphid (Myzus persicae); assay: Myzus persicae oral test; settings: 120 h
Description: Solvent: 100 parts by weight acetone
To produce a suitable preparation of active compound, 1 part by weight of active compound is mixed with the stated amount of solvent, and the concentrate is diluted with water to the desired concentration. 50 μL compound solution is filled in microtiter plates and 150 μL IPL41 insect medium (33%+15% sugar) is added to obtain a total volume of 200 μL per well. Afterwards the plates are sealed with parafilm through which a mixed population of the green peach aphid (Myzus persicae) can suck on the compound preparation.
(§3) After 5 days mortality in % is determined. 100% means all aphids have been killed and 0% means none of the aphids have been killed.

[3] = tested on: green peach aphid (Myzus persicae); assay: Myzus persicae spray test; settings: foliar, 120 h, after 5 days, Chinese cabbage leaf disks
Description: Myzus persicae—spray test
(§4) Solvent: 78.0 parts by weight acetone • 1.5 parts by weight dimethylformamide
as §1
as §2, with “solvents” for “solvent,”, “and” for “and the concentrate”
Chinese cabbage (Brassica pekinensis) leaf disks infected with all instars of the green peach aphid (Myzus persicae), are sprayed with a preparation of the active ingredient of the desired concentration.
as §3

[4] = tested on: fall armyworm larvae (Spodoptera frugiperda); assay: Spodoptera frugiperda spray test; settings: in Zea mays, 168 h
Description: Spodoptera frukiperda—Spray Test
as §4, §1
as §2, with “solvents” for “solvent,”, “and” for “and the concentrate”
Maize (Zea mays) leaf sections are sprayed with a preparation of the active ingredient of the desired concentration. Once dry, the leaf sections are infested with fall armyworm larvae (Spodoptera frugiperda).
After 7 days mortality in % is determined. 100% means all caterpillars have been killed and 0% means none of the caterpillars have been killed.

[5] = tested on: Aedes aegypti strain MONHEIM; assay: Aedes aegypti test (AEDSAE surface treatment & contact assay); settings: 24 hours after contact, read-out: efficacy (mortality); for mortality at 20 mg/m2: surface concentration 20 mg/m^2, 30 minutes exposure
Description: Aedes Aegypti Test (AEDSAE Surface Treatment & Contact Assay)
(§5) Solvent: Aceton+2000 ppm rapeseed oil methyl ester (RME)
(§6) In order to produce a sufficient, active ingredient containing solution it is necessary to solve the test compound in the solvent-mix (acetone at 2 mg/ml/RME 2000 ppm). This solution is pipetted onto a glazed tile and after evaporation of the acetone, adult mosquitoes of the species Aedes aegypti strain MONHEIM are placed onto the dried surface. The exposure time is 30 minutes. Mortality in percent (%) is determined 24 hours after contact of the insects to the treated surface. 100% mortality means that all tested insects are dead, whereas 0% means that no insect died.

[6] = tested on: Anopheles funestus strain FUMOZ-R; assay: Anopheles funestus test (ANPHFU surface treatment & contact assay); settings: surface concentration 20 mg/m^2, 30 minutes exposure, 24 hours after contact, read-out: efficacy (mortality)
Description: Anopheles funestus Test (ANPHFU Surface Treatment & Contact Assay)
as §5
as §6, with “Anopheles funestus” for “Aedes aegypti”, “FUMOZ-R (Hunt et al., Med. Vet. Entomol. 2005 September; 19(3): 271-275)” for “MONHEIM”

[7] = tested on: Musca domestica strain WHO-N; assay: Musca domestica test (MUSCDO surface treatment & contact assay); settings: 24 hours after contact, read-out: efficacy (mortality); for mortality at 4 mg/m2: surface concentration 4 mg/m^2, 30 minutes exposure; for mortality at 20 mg/m2: surface concentration 20 mg/m^2, 30 minutes exposure
Description: Musca domestica Test (MUSCDO Surface Treatment & Contact Assay)
as §5
as §6, with “flies” for “mosquitoes”, “Musca domestica” for “Aedes aegypti”, “WHO-N” for “MONHEIM”

[8] = tested on: Rhipicephalus microplus larvae (strain Parkhurst, resistant against synthetic pyrethroids); assay: Rhipicephalus (Boophilus) microplus in-vitro contact test, larval cattle tick; settings: 5 μg/cm^2 (=500 g/ha), after 48 hours, read-out: efficacy (larvae dead or moribund)
Description: Rhipicephalus (Boophilus) Microplus—In-Vitro Contact Tests Larval Cattle Tick (Strain Parkhurst, Resistant Against Synthetic Pyrethroids)
(§7) 9 mg compound is solved in 1 mL acetone and diluted with acetone to the desired concentration. 250 μL of the test solution is filled in 25 mL glass test tubes and homogeneously distributed on the inner walls by rotation and tilting on a shaking device (2 h at 30 rpm). With a compound concentration of 900 ppm, an inner surface of 44.7 cm^2 and a homogeneous distribution, a dose of 5 μg/cm^2 is achieved.
After the solvent has evaporated, each test tube is filled with 20-50 cattle tick larvae (Rhipicephalus microplus), closed with a perforated lid and incubated in a horizontal position at 85% relative humidity and 27° C. in an incubator. After 48 hours efficacy is determined. The larvae are patted on the ground of the tubes and negative geotactic behaviour is recorded.
An efficacy of 100% means all larvae are dead or moribund; 0% means no larvae are dead or moribund.

[9] = tested on: adult engorged female ticks (Rhipicephalus microplus); assay: Rhipicephalus (Boophilus) microplus injection test; settings: 168 h, after 7 days, read-out: efficacy (infertile eggs); for pest or weed control at 0.004 mg: 4 μg/animal; for pest or weed control at 0.02 mg: 20 μg/animal
Description: Rhipicephalus (Boophilus) microplus—Injection Test
(§8) Solvent: dimethyl sulfoxide
To produce a suitable preparation of active compound, 10 mg of active compound are dissolved in 0.5 mL solvent, and the concentrate is diluted with solvent to the desired concentration.
Five adult engorged female ticks (Rhipicephalus microplus) are injected with 1 μL compound solution into the abdomen. The ticks are transferred into replica plates and incubated in a climate chamber.
After 7 days egg deposition of fertile eggs is monitored. Eggs where fertility is not visible are stored in a climate chamber till hatching after about 42 days. An efficacy of 100% means all eggs are infertile; 0% means all eggs are fertile.

[10] = tested on: adult unfed cat fleas (Ctenocephalides felis); assay: Ctenocephalides felis oral test; settings: 48 h
Description: Ctenocephalides felis—Oral Test
as §8
To produce a suitable preparation of active compound, 10 mg of active compound are dissolved in 0.5 ml solvent, and the concentrate is diluted with cattle blood to the desired concentration.
Approximately 20 adult unfed cat fleas (Ctenocephalides felis) are placed in flea chambers. The blood chamber, sealed with parafilm on the bottom, are filled with cattle blood supplied with compound solution and placed on the gauze covered top of the flea chamber, so that the fleas are able to suck the blood. The blood chamber is heated to 37° C. whereas the flea chamber is kept at room temperature.
After 2 days mortality in % is determined. 100% means all the fleas have been killed; 0% means none of the fleas have been killed.

[11] = tested on: adult brown dog ticks (Rhipicephalus sanguineus); assay: Rhipicephalus sanguineus in-vitro contact test with adult brown dog ticks; settings: 5 μg/cm^2 (=500 g/ha), after 48 hours, read-out: efficacy (ticks dead or moribund)
Description: Rhipicephalus sanguineus—In-Vitro Contact Tests with Adult Brown Dog Ticks
as §7
After the solvent has evaporated, each test tube is filled with 5-10 adult brown dog ticks (Rhipicephalus sanguineus), closed with a perforated lid and incubated in a lying position at room temperature and relative humidity. After 48 hours efficacy is determined. The ticks are patted on the ground of the tubes and are incubated on a heating plate at 45-50° C. for at most 5 minutes. Immotile or uncoordinated moving ticks, which are not able to escape the heat by climbing upwards, are marked as dead or moribund.
An efficacy of 100% means all ticks are dead or moribund; 0% means no ticks are dead or moribund.

[12] = tested on: Blattella germanica strain PAULINIA; assay: Blattella germanica test (BLTTGE surface treatment & contact assay); settings: surface concentration 20 mg/m^2, 30 minutes exposure, 24 hours after contact, read-out: efficacy (mortality)
Description: Blattella germanica Test (BLTTGE Surface Treatment & Contact Assay)
as §5
as §6, with “animals” for “mosquitoes”, “Blattella germanica” for “Aedes aegypti”, “PAULINIA” for “MONHEIM”

[13] = tested on: adult cat fleas (Ctenocephalides felis); assay: Ctenocephalides felis in-vitro contact test, adult cat flea; settings: after 48 hours, read-out: efficacy (fleas dead or moribund)
Description: as §7, with “Ctenocephalides felis—In-Vitro Contact Tests Adult Cat Flea 9 mg” for “9 mg”
After the solvent has evaporated, each test tube is filled with 5-10 adult cat fleas (Ctenocephalidesfelis), closed with a perforated lid and incubated in a lying position at room temperature and relative humidity.
After 48 hours efficacy is determined. The fleas are patted on the ground of the tubes and are incubated on a heating plate at 45-50° C. for at most 5 minutes. Immotile or uncoordinated moving fleas, which are not able to escape the heat by climbing upwards, are marked as dead or moribund.
An efficacy of 100% means all fleas are dead or moribund; 0% means no fleas are dead or moribund.

[14] = tested on: larvae of the southern green stink bug (Nezara viridula); assay: Nezara viridula spray test; settings: 96 h, after 4 days, barley plants
Description: Nezara viridula—Spray Test
Solvent: 78.0 parts by weight of acetone • • 1.5 parts by weight of dimethylformamide
as §1, §2
Barley plants (Hordeum vulgare) infested with larvae of the southern green stink bug (Nezara viridula) are sprayed with a test solution containing the desired concentration of the active ingredient.
After 4 days mortality in % is determined. 100% means all the stink bugs have been killed; 0% means none of the stink bugs have been killed.

Row | SMILES | pest or weed control at 32 µg/disc, 100 g/ha [1] | mortality at 4 ppm [2] | mortality at 100 g/ha [3] | mortality at 100 g/ha [4] | mortality at 4 mg/m2 ([5]; surface concentration 4 mg/m^2, 30 minutes exposure) | mortality at 20 mg/m2 [5] | mortality at 20 mg/m2 [6] | mortality at 4 mg/m2 [7] | mortality at 20 mg/m2 [7] | pest or weed control at 5 µg/cm2 [8] | pest or weed control at 0.004 mg [9] | pest or weed control at 0.02 mg [9] | mortality at 100 ppm [10] | pest or weed control at 5 µg/cm2, 500 g/ha [11] | mortality at 20 mg/m2 [12] | pest or weed control at 1 µg/cm2, 100 g/ha ([13]; 1 μg/cm^2 (=100 g/ha)) | pest or weed control at 5 µg/cm2, 500 g/ha ([13]; 5 μg/cm^2 (=500 g/ha)) | mortality at 100 g/ha [14]
1 | CC(NC(=O)c1cc(Cl)cc(OC(F)(F)F)c1)c1nc(Cl)nn1-c1ncccn1 (racemic) [Example I-001, 3-chloro-N-[1-(5-chloro-2-pyrimidin-2-yl-1,2,4-triazol-3-yl)ethyl]-5-(trifluoromethoxy)benzamide] | 100% | 100% | 90% | 100% | 80 to 100% | 80 to 100% | 80 to 100% | 80 to 100% | 80 to 100% | – | – | – | – | – | – | – | – | –
2 | CC(NC(=O)c1cc(Cl)cc(C(F)(F)F)c1)c1nc(Br)nn1-c1ccc(Cl)cn1 (racemic) [Example I-018, N-[1-[5-bromo-2-(5-chloro-2-pyridyl)-1,2,4-triazol-3-yl]ethyl]-3-chloro-5-(trifluoromethyl)benzamide] | 100% | – | – | 83% | – | 80 to 100% | 80 to 100% | – | – | 80% | 80% | 100% | – | – | – | – | – | –
3 | CC(NC(=O)c1cc(Br)cc(C(F)(F)F)c1)c1nc(Cl)nn1-c1ncccn1 (stereo not shown) [Example I-003] | 100% | 100% | – | 100% | – | 80 to 100% | – | 80 to 100% | 80 to 100% | 100% | 100% | 100% | 100% | 100% | 80 to 100% | – | – | –
4 | CC(NC(=O)c1cc(Cl)cc(C(F)(F)F)c1)c1nc(Br)nn1-c1ncccn1 (stereo not shown) [Example I-016] | 100% | 100% | – | 100% | – | 80 to 100% | 80 to 100% | – | – | 80% | 100% | – | 100% | – | 80 to 100% | – | – | –
5 | CC(NC(=O)c1cc(Cl)nc(C(F)(F)F)c1)c1nc(I)nn1-c1ncccn1 (stereo not shown) [Example I-024] | 100% | – | – | – | – | – | – | – | – | 100% | – | – | – | 80% | – | 80% | 90% | 100%
